Experimental data published in PubChem BioAssay (NCI).
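1) Cells in 96-well plates. 2) Compound, 48 h, 5 concentrations. 3) Linear interpolation between surrounding doses. 4) Unreached endpoint = highest concentration. GI50 = concentration required for 50% inhibition of growth. TGI: concentration producing complete growth inhibition.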

Tests used:
Test in all cases: inhibition of tumour cell growth, NCI panel, 48 h
[1] = system: COLO 205 colon
[2] = system: SK-MEL-5 melanoma
[3] = system: SF-539 CNS
[4] = system: MDA-MB-231 breast
[5] = system: RXF 393 renal
[6] = system: UACC-257 melanoma
[7] = system: A498 renal
[8] = system: HS 578T breast
[9] = system: SF-295 CNS
[10] = system: RPMI-8226 leukemia
[11] = system: MOLT-4 leukemia
[12] = system: UACC-62 melanoma
[13] = system: SK-MEL-28 melanoma
[14] = system: NCI/ADR-RES ovarian
[15] = system: DU-145 prostate
[16] = system: HCC-2998 colon
[17] = system: M14 melanoma
[18] = system: NCI-H23 lung
[19] = system: UO-31 renal
[20] = system: CCRF-CEM leukemia
[21] = system: CAKI-1 renal
[22] = system: K-562 leukemia
[23] = system: T-47D breast
[24] = system: KM12 colon
[25] = system: LOX IMVI melanoma
[26] = system: 786-0 renal
[27] = system: EKVX NSCLC
[28] = system: ACHN renal
[29] = system: MCF7 breast
[30] = system: HCT-116 colon
[31] = system: HT29 colon
[32] = system: BT-549 breast
[33] = system: HOP-92 NSCLC
[34] = system: SK-MEL-2 melanoma
[35] = system: SR leukemia
[36] = system: OVCAR-5 ovarian
[37] = system: OVCAR-8 ovarian
[38] = system: IGROV1 ovarian
[39] = system: SN12C renal
[40] = system: NCI-H460 lung
[41] = system: HOP-62 NSCLC
[42] = system: PC-3 prostate
[43] = system: SF-268 CNS
[44] = system: HL-60(TB) leukemia
[45] = system: SW-620 colon
[46] = system: MDA-MB-435
[47] = system: U251 CNS
[48] = system: SNB-75 CNS
[49] = system: NCI-H522 lung
[50] = system: OVCAR-3 ovarian
[51] = system: TK-10 renal
[52] = system: SNB-19 CNS
[53] = system: A549 NSCLC
[54] = system: NCI-H226 lung
[55] = system: SK-OV-3 ovarian
[56] = system: HCT-15 colon
[57] = system: MALME-3M melanoma
[58] = system: OVCAR-4 ovarian

Compound: CN(C)CCNc1nc2ccccc2c2[nH]c3ccccc3c12
- GI50 [1]: 316 nM
- TGI [1]: 1090 nM
- GI50 [2]: 1610 nM
- TGI [2]: 3940 nM
- GI50 [3]: 891 nM
- TGI [3]: 3060 nM
- GI50 [4]: 1220 nM
- TGI [4]: 3990 nM
- GI50 [5]: 1270 nM
- TGI [5]: 5410 nM
- GI50 [6]: 3740 nM
- TGI [6]: 16900 nM
- GI50 [7]: 5320 nM
- TGI [7]: 11000 nM
- GI50 [8]: 4010 nM
- TGI [8]: 13600 nM
- GI50 [9]: 439 nM
- TGI [9]: 2910 nM
- GI50 [10]: 648 nM
- TGI [10]: 1970 nM
- GI50 [11]: 571 nM
- TGI [11]: 2370 nM
- GI50 [12]: 1360 nM
- TGI [12]: 3550 nM
- GI50 [13]: 1980 nM
- TGI [13]: 6440 nM
- GI50 [14]: 1020 nM
- TGI [14]: 7860 nM
- GI50 [15]: 1060 nM
- TGI [15]: 6930 nM
- GI50 [16]: 483 nM
- TGI [16]: 2380 nM
- GI50 [17]: 410 nM
- TGI [17]: 1710 nM
- GI50 [18]: 960 nM
- TGI [18]: 4650 nM
- GI50 [19]: 1010 nM
- TGI [19]: 13000 nM
- GI50 [20]: 937 nM
- TGI [20]: 3950 nM
- GI50 [21]: 344 nM
- TGI [21]: 1760 nM
- GI50 [22]: 748 nM
- TGI [22]: 9230 nM
- GI50 [23]: 15800 nM
- TGI [23]: 92200 nM
- GI50 [24]: 328 nM
- TGI [24]: 2920 nM
- GI50 [25]: 301 nM
- TGI [25]: 1110 nM
- GI50 [26]: 396 nM
- TGI [26]: 2510 nM
- GI50 [27]: 1700 nM
- TGI [27]: 14300 nM
- GI50 [28]: 190 nM
- TGI [28]: 1210 nM
- GI50 [29]: 129 nM
- TGI [29]: 941 nM
- GI50 [30]: 106 nM
- TGI [30]: 2250 nM
- GI50 [31]: 188 nM
- TGI [31]: > 77100 nM
- GI50 [32]: 2580 nM
- TGI [32]: 8830 nM
- GI50 [33]: 464 nM
- TGI [33]: 2420 nM
- GI50 [34]: 2440 nM
- TGI [34]: 20900 nM
- GI50 [35]: 341 nM
- TGI [35]: 1310 nM
- GI50 [36]: 1560 nM
- TGI [36]: 21900 nM
- GI50 [37]: 535 nM
- TGI [37]: 9930 nM
- GI50 [38]: 970 nM
- TGI [38]: > 31700 nM
- GI50 [39]: 693 nM
- TGI [39]: 2820 nM
- GI50 [40]: 244 nM
- TGI [40]: 1970 nM
- GI50 [41]: 203 nM
- TGI [41]: 1800 nM
- GI50 [42]: 574 nM
- TGI [42]: 2800 nM
- GI50 [43]: 293 nM
- TGI [43]: 1820 nM
- GI50 [44]: 1550 nM
- TGI [44]: 3770 nM
- GI50 [45]: 764 nM
- TGI [45]: 19700 nM
- GI50 [46]: 420 nM
- TGI [46]: 1710 nM
- GI50 [47]: 386 nM
- TGI [47]: 2040 nM
- GI50 [48]: 1220 nM
- TGI [48]: 3200 nM
- GI50 [49]: 1330 nM
- GI50 [50]: 438 nM
- TGI [50]: 2010 nM
- GI50 [51]: 429 nM
- TGI [51]: 1950 nM
- GI50 [52]: 1040 nM
- TGI [52]: 8000 nM
- GI50 [53]: 370 nM
- TGI [53]: 10100 nM
- GI50 [54]: 587 nM
- TGI [54]: 4740 nM
- GI50 [55]: 1720 nM
- TGI [55]: 13900 nM

Compound: CCCCCCCCCCCCOC1C(CNCC2OC3OC(C)(C)OC3C2NC(=O)Nc2ccc(C(=O)OCC)cc2)OC2OC(C)(C)OC21 (stereo unspecified)
- GI50 [1]: 1990 nM
- TGI [1]: 3760 nM
- GI50 [2]: 2050 nM
- TGI [2]: 4130 nM
- GI50 [3]: 1790 nM
- TGI [3]: 3520 nM
- GI50 [4]: 1770 nM
- TGI [4]: 3330 nM
- GI50 [5]: 2730 nM
- TGI [5]: 4800 nM
- GI50 [6]: 5050 nM
- TGI [6]: 16200 nM
- GI50 [7]: 12800 nM
- TGI [7]: 25500 nM
- GI50 [8]: 1670 nM
- TGI [8]: 3760 nM
- GI50 [56]: 2460 nM
- TGI [56]: 6140 nM
- GI50 [9]: 6310 nM
- TGI [9]: 20000 nM
- GI50 [10]: 2130 nM
- TGI [10]: 4530 nM
- GI50 [11]: 3390 nM
- TGI [11]: 8430 nM
- GI50 [12]: 3390 nM
- TGI [12]: 12200 nM
- GI50 [13]: 1970 nM
- TGI [13]: 4300 nM
- GI50 [14]: 2190 nM
- TGI [14]: 4350 nM
- GI50 [15]: 1890 nM
- TGI [15]: 3730 nM
- GI50 [16]: 1800 nM
- TGI [16]: 3230 nM
- GI50 [17]: 1770 nM
- TGI [17]: 3380 nM
- GI50 [18]: 8340 nM
- TGI [18]: 21500 nM
- GI50 [19]: 3960 nM
- TGI [19]: 13800 nM
- GI50 [21]: 6740 nM
- TGI [21]: 19800 nM
- GI50 [22]: 2950 nM
- TGI [22]: > 100000 nM
- GI50 [23]: 2680 nM
- TGI [23]: 7100 nM
- GI50 [24]: 1960 nM
- TGI [24]: 3690 nM
- GI50 [25]: 1990 nM
- TGI [25]: 3920 nM
- GI50 [26]: 3290 nM
- TGI [26]: 11500 nM
- GI50 [27]: 6080 nM
- TGI [27]: 18900 nM
- GI50 [28]: 3430 nM
- TGI [28]: 10900 nM
- GI50 [29]: 1350 nM
- TGI [29]: 2920 nM
- GI50 [30]: 1720 nM
- TGI [30]: 3140 nM
- GI50 [31]: 1710 nM
- TGI [31]: 3560 nM
- GI50 [32]: 5440 nM
- TGI [32]: 19800 nM
- GI50 [33]: 1840 nM
- TGI [33]: 3920 nM
- GI50 [34]: 13400 nM
- TGI [34]: 29700 nM
- GI50 [36]: 4180 nM
- TGI [36]: 17000 nM
- GI50 [37]: 2160 nM
- TGI [37]: 4300 nM
- GI50 [38]: 2700 nM
- TGI [38]: 7370 nM
- GI50 [39]: 1960 nM
- TGI [39]: 3740 nM
- GI50 [40]: 2000 nM
- TGI [40]: 3870 nM
- GI50 [41]: 3550 nM
- TGI [41]: 13500 nM
- GI50 [42]: 2210 nM
- TGI [42]: 4390 nM
- GI50 [43]: 1630 nM
- TGI [43]: 3240 nM
- GI50 [44]: 2650 nM
- TGI [44]: 5900 nM
- GI50 [45]: 1750 nM
- TGI [45]: 3290 nM
- GI50 [46]: 1900 nM
- TGI [46]: 3800 nM
- GI50 [47]: 1940 nM
- TGI [47]: 3710 nM
- GI50 [48]: 5520 nM
- TGI [48]: 21100 nM
- GI50 [49]: 2040 nM
- TGI [49]: 3780 nM
- GI50 [57]: 8990 nM
- TGI [57]: 29100 nM
- GI50 [50]: 3410 nM
- TGI [50]: 11500 nM
- GI50 [51]: 4130 nM
- TGI [51]: 15200 nM
- GI50 [58]: 1870 nM
- TGI [58]: 4250 nM
- GI50 [52]: 13700 nM
- TGI [52]: 27700 nM
- GI50 [53]: 2230 nM
- TGI [53]: 4760 nM
- GI50 [54]: 6230 nM
- TGI [54]: 22700 nM
- GI50 [55]: 10400 nM
- TGI [55]: 23300 nM
